Publication PMC8286840, “Identifying SARS-CoV-2 antiviral compounds by screening for small molecule inhibitors of Nsp3 papain-like protease” (Biochemical Journal, 2021)
Where a name gives a salt, the structure may show the parent alone. Read-outs that look alike come from different tables or passages of the source.

Legend:
[1] = target: T1, SARS-CoV-2 PLpro (nsp3 1564–1878) (Severe acute respiratory syndrome coronavirus 2, UniProt P0DTD1); experiment: biochemical; parameters: FRET-quenched peptide (Pro3) cleavage by PLpro, 10 min pre-incubation, slope over 20 min, normalised to no-compound control; settings: low concentration screen, read-out: % of control remaining
[2] = target: T1, SARS-CoV-2 PLpro (nsp3 1564–1878); experiment: biochemical; parameters: FRET-quenched peptide (Pro3) cleavage by PLpro, 10 min pre-incubation, slope over 20 min, normalised to no-compound control; settings: high concentration screen, read-out: % of control remaining

Structure (SMILES): O=[N+]([O-])/C=C/c1ccc2c(c1)OCO2 [Syk Inhibitor III]
- remaining activity at 1.25 µM ([1]; Well no.=2599): 97.9%
- remaining activity at 3.75 µM ([2]; Well no.=2599): 97.6%

Structure (SMILES): CNc1ncnc2c1ncn2[C@@H]1O[C@H](CO)[C@@H](O)[C@H]1O [N6-Methyladenosine]
- remaining activity at 1.25 µM ([1]; Well no.=930): 97.7%
- remaining activity at 1.25 µM ([1]; Well no.=8052): 95.7%
- remaining activity at 3.75 µM ([2]; Well no.=930): 96.9%
- remaining activity at 3.75 µM ([2]; Well no.=8052): 96.2%

Structure (SMILES): CC(C)NCC(O)c1cc(O)cc(O)c1 (centres unmarked) [Metaproterenol hemisulfate]
- remaining activity at 1.25 µM ([1]; Well no.=826): 104%
- remaining activity at 3.75 µM ([2]; Well no.=826): 100%

Structure (SMILES): CCC1(c2ccccc2)C(=O)NCNC1=O [Primidone]
- remaining activity at 1.25 µM ([1]; Well no.=1443): 101%
- remaining activity at 3.75 µM ([2]; Well no.=1443): 95.8%

Structure (SMILES): O=S(=O)(c1cccc2cnccc12)N1CCCNCC1 [HA1077]
- remaining activity at 1.25 µM ([1]; Well no.=1669): 106%
- remaining activity at 3.75 µM ([2]; Well no.=1669): 106%

Structure (SMILES): C=CC[C@H](N)C(=O)O [L-allylglycine]
- remaining activity at 1.25 µM ([1]; Well no.=292): 91.4%
- remaining activity at 3.75 µM ([2]; Well no.=292): 91.8%

Structure (SMILES): CC(=O)Nc1nc(C)c(-c2ccc(Cl)c(S(=O)(=O)NCCO)c2)s1 [PIK-93]
- remaining activity at 1.25 µM ([1]; Well no.=4911): 95.7%
- remaining activity at 3.75 µM ([2]; Well no.=4911): 96.9%

Structure (SMILES): N[C@@H](Cc1ccc(F)cc1)C(=O)O [p-Fluoro-L-phenylalanine]
- remaining activity at 1.25 µM ([1]; Well no.=707): 95.3%
- remaining activity at 3.75 µM ([2]; Well no.=707): 87%

Structure (SMILES): O=C(c1ccc2c(c1)OCCO2)N1CCCCC1 [CX 546]
- remaining activity at 1.25 µM ([1]; Well no.=729): 103%
- remaining activity at 3.75 µM ([2]; Well no.=729): 99.5%

Structure (SMILES): CN1C[C@H](C(=O)N[C@]2(C)O[C@@]3(O)[C@@H]4CCCN4C(=O)[C@H](Cc4ccccc4)N3C2=O)C[C@@H]2c3cccc4[nH]cc(c34)C[C@H]21 [Dihydroergotamine (mesylate)]
- remaining activity at 1.25 µM ([1]; Well no.=6947): 92.6%
- remaining activity at 3.75 µM ([2]; Well no.=6947): 92.7%

Structure (SMILES): CNC1(C)C2CCC(C2)C1(C)C (centres unmarked) [Mecamylamine]
- remaining activity at 1.25 µM ([1]; Well no.=1556): 103%
- remaining activity at 3.75 µM ([2]; Well no.=1556): 102%

Structure (SMILES): O=C1CC[C@@]2(O)[C@H]3Cc4ccc(O)c5c4[C@@]2(CCN3CC2CC2)[C@H]1O5 [Naltrexone.HCl]
- remaining activity at 1.25 µM ([1]; Well no.=1883): 88.3%
- remaining activity at 3.75 µM ([2]; Well no.=1883): 92.8%

Structure (SMILES): COc1cc(C(=O)OCCCN2CCCN(CCCOC(=O)c3cc(OC)c(OC)c(OC)c3)CC2)cc(OC)c1OC [Dilazep hydrochloride]
- remaining activity at 1.25 µM ([1]; Well no.=595): 103%
- remaining activity at 3.75 µM ([2]; Well no.=595): 106%

Structure (SMILES): OCCOc1ccc(/C(=C(/CCCl)c2ccccc2)c2ccccc2)cc1 [2-{4-[(1Z)-4-chloro-1,2-diphenyl-1-butenyl]phenoxy}ethanol]
- remaining activity at 1.25 µM ([1]; Well no.=5956): 92.3%
- remaining activity at 3.75 µM ([2]; Well no.=5956): 93.6%

Structure (SMILES): Cn1cc(C(=O)[C@@H]2CCc3[nH]cnc3C2)c2ccccc21 [Ramosetron (Hydrochloride)]
- remaining activity at 1.25 µM ([1]; Well no.=7339): 102%
- remaining activity at 3.75 µM ([2]; Well no.=7339): 103%

Structure (SMILES): CC(C)=CCC/C(C)=C/CC/C(C)=C/CC/C(C)=C/CC/C(C)=C/CC/C(C)=C/CC/C(C)=C/CC/C(C)=C/CC/C(C)=C/CO [Solanesol]
- remaining activity at 1.25 µM ([1]; Well no.=3759): 96.8%
- remaining activity at 3.75 µM ([2]; Well no.=3759): 96.5%

Structure (SMILES): Oc1cc(O)c(Cl)cn1 [Gimeracil]
- remaining activity at 1.25 µM ([1]; Well no.=5056): 101%
- remaining activity at 3.75 µM ([2]; Well no.=5056): 104%

Structure (SMILES): Nc1nc(NC2CC2)c2ncn([C@H]3C=C[C@@H](CO)C3)c2n1 [Abacavir sulfate]
- remaining activity at 1.25 µM ([1]; Well no.=5326): 97.2%
- remaining activity at 3.75 µM ([2]; Well no.=5326): 95.9%

Structure (SMILES): CC(N)=NCCCCC(N)C(=O)O (stereo in doubt) [L-N6-(1-Iminoethyl)lysine hydrochloride]
- remaining activity at 1.25 µM ([1]; Well no.=871): 107%
- remaining activity at 3.75 µM ([2]; Well no.=871): 102%

Structure (SMILES): N[C@@H](CCCC(=O)O)C(=O)O [L-2-aminoadipic acid]
- remaining activity at 1.25 µM ([1]; Well no.=52): 97.1%
- remaining activity at 3.75 µM ([2]; Well no.=52): 97.4%

Structure (SMILES): COc1ccc(Cl)cc1NC(=O)Nc1cc(C)nc2ccccc12 [N-(5-Chloro-2-methoxyphenyl)-N'-(2-methyl-4-quinolinyl)urea]
- remaining activity at 1.25 µM ([1]; Well no.=2626): 100%
- remaining activity at 3.75 µM ([2]; Well no.=2626): 101%

Structure (SMILES): CCCCCCCCCCCC1=C(O)C(=O)C=C(O)C1=O [Embelin]
- remaining activity at 1.25 µM ([1]; Well no.=3273): 105%
- remaining activity at 1.25 µM ([1]; Well no.=6494): 95.2%
- remaining activity at 3.75 µM ([2]; Well no.=3273): 107%
- remaining activity at 3.75 µM ([2]; Well no.=6494): 88.6%

Structure (SMILES): O=C(O)c1cc(N(Cc2ccccc2O)Cc2ccccc2O)ccc1O [Lavendustin B]
- remaining activity at 1.25 µM ([1]; Well no.=3807): 95.8%
- remaining activity at 3.75 µM ([2]; Well no.=3807): 98%

Structure (SMILES): COc1cc(CCN)ccc1O [3-Methoxytyramine]
- remaining activity at 1.25 µM ([1]; Well no.=6773): 107%
- remaining activity at 3.75 µM ([2]; Well no.=6773): 97.4%

Structure (SMILES): O=C(O)[C@@H]1C[C@@H](O)CN1 [L-Hydroxyproline]
- remaining activity at 1.25 µM ([1]; Well no.=6735): 101%
- remaining activity at 1.25 µM ([1]; Well no.=8744): 94.2%
- remaining activity at 3.75 µM ([2]; Well no.=6735): 102%
- remaining activity at 3.75 µM ([2]; Well no.=8744): 91.4%

Structure (SMILES): CCCC(C(=O)OCCN(CC)CC)(c1ccccc1)c1ccccc1 [SKF-525A hydrochloride]
- remaining activity at 1.25 µM ([1]; Well no.=902): 105%
- remaining activity at 3.75 µM ([2]; Well no.=902): 101%

Structure (SMILES): COC1=C[C@@H](C)[C@@H]2C[C@H]3OC(=O)C[C@H]4C(C)=C(OC)C(=O)[C@H]([C@@]2(C)C1=O)[C@@]34C [Quassin]
- remaining activity at 1.25 µM ([1]; Well no.=3775): 94.2%
- remaining activity at 3.75 µM ([2]; Well no.=3775): 101%

Structure (SMILES): NC(N)=Nc1nc(CSCC/C(N)=N/S(N)(=O)=O)cs1 [FAMOTIDINE]
- remaining activity at 1.25 µM ([1]; Well no.=471): 103%
- remaining activity at 1.25 µM ([1]; Well no.=1740): 101%
- remaining activity at 1.25 µM ([1]; Well no.=6622): 104%
- remaining activity at 3.75 µM ([2]; Well no.=471): 104%
- remaining activity at 3.75 µM ([2]; Well no.=1740): 101%
- remaining activity at 3.75 µM ([2]; Well no.=6622): 106%

Structure (SMILES): CN1[C@@H]2C[C@@H](OC(=O)[C@H](CO)c3ccccc3)C[C@H]1[C@@H]1O[C@@H]12 [Scopolamine (hydrobromide)]
- remaining activity at 1.25 µM ([1]; Well no.=6670): 102%
- remaining activity at 3.75 µM ([2]; Well no.=6670): 105%

Structure (SMILES): CC(C)[C@@H]1NC(=O)[C@H](C)OC(=O)[C@@H](C(C)C)NC(=O)[C@@H](C(C)C)OC(=O)[C@H](C(C)C)NC(=O)[C@H](C)OC(=O)[C@@H](C(C)C)NC(=O)[C@@H](C(C)C)OC(=O)[C@H](C(C)C)NC(=O)[C@H](C)OC(=O)[C@@H](C(C)C)NC(=O)[C@@H](C(C)C)OC1=O [Valinomycin]
- remaining activity at 1.25 µM ([1]; Well no.=3631): 99.9%
- remaining activity at 3.75 µM ([2]; Well no.=3631): 101%

Structure (SMILES): N[C@@H](CC(=O)O)C(=O)O [L-Aspartic acid]
- remaining activity at 1.25 µM ([1]; Well no.=248): 96.2%
- remaining activity at 3.75 µM ([2]; Well no.=248): 97.3%
- remaining activity at 3.75 µM ([2]; Well no.=7683): 106%

Structure (SMILES): O=S(=O)(CC1CS1)c1ccc(Oc2ccccc2)cc1 (centres unmarked) [SB-3CT]
- remaining activity at 1.25 µM ([1]; Well no.=8478): 95.9%
- remaining activity at 3.75 µM ([2]; Well no.=8478): 91.4%

Structure (SMILES): C[N+](C)(C)CC(=O)O [Betaine hydrochloride]
- remaining activity at 1.25 µM ([1]; Well no.=77): 101%
- remaining activity at 3.75 µM ([2]; Well no.=77): 103%
